Reference: US20260001928A1 (CORTERIA PHARMACEUTICALS, priority 2022, published 2026)
*1 amine or outer side, *2 acyl side, *3 side chain or, on linkers, in order; H or OH if unused. Where a SMILES comes first, the peptide text is derived from it. Side-chain parts run from the residue outwards. [ ]: non-standard residue; d: D form. The star is where a group is joined. γGlu = O=C(O)[C@H](CCC(=O)[*:2])N[*:1]; C14 diacid = O=C(O)CCCCCCCCCCCCC(=O)*; Api = NC1(C(=O)O)CCNCC1; AEEA = NCCOCCOCC(=O)O; Aib = CC(C)(N)C(=O)O

Tests used:
[1] = molecular target: T1, human CRF2a receptor (Homo sapiens, UniProt Q13324); test: Activity at human CRF2a receptor, cAMP functional assay in TeloHEAC cells; assay type: cell-based; details: TeloHEAC cells stably expressing human CRF2a receptor, relative to urocortin 2 (100 nM = 100%)
T1 construct: expressed in transfected cells; host or cells: TeloHEAC cells
T1 sequence (Q13324 1-411): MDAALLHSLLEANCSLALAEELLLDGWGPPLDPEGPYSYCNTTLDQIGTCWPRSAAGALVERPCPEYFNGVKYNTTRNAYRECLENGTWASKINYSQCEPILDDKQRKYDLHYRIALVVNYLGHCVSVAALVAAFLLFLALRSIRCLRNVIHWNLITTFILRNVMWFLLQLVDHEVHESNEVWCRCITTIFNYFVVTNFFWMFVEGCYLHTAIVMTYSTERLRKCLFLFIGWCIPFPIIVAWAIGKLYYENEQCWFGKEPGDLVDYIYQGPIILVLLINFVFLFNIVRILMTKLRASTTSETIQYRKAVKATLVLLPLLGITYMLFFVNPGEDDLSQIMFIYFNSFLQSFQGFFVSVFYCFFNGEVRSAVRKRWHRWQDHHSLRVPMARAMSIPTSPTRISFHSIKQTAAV
How it was run: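 TeloHEAC cells stably expressing human CRF2a (10000 cells/well) were treated with 16-point 1:2 compound dilutions in HBSS/20 mM HEPES with IBMX for 30 min at 37° C. cAMP was read by HTRF (665/620 nm ratio). EC50 was the concentration giving 50% activation, with 100 nM urocortin 2 set as 100%.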

[2] = molecular target: T2, CFR1R receptor (Homo sapiens, UniProt P34998); test: Activity at anti-target CFR1R receptor, cAMP assay in CRF1R-overexpression CHO-K1 cells; assay type: cell-based; details: 100% = Sauvagine at 100 nM; for EC50: cAMP
T2 construct: host or cells: CHO-K1 (clone 2)
T2 sequence (P34998 24-415): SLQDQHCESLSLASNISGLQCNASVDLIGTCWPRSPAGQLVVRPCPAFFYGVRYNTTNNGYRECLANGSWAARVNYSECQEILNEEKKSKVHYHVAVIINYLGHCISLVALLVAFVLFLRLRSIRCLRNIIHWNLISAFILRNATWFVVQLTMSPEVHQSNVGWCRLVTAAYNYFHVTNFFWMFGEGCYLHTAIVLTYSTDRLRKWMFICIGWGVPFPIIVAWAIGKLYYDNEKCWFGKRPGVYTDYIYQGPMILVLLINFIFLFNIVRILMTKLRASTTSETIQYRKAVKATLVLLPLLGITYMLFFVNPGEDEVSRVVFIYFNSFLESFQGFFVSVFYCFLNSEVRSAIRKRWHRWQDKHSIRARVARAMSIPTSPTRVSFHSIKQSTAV
How it was run: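 Signal is normalised to 100 nM Sauvagine, taken as 100% activation, in clone 2 cells plated at a final 4000 cells/well from frozen stocks.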

Row | EC50 [1] [nM] | Emax (% I) [2] [% I] | EC50 [2] [nM] | SMILES
1 | 1.34 | 13 | > 250 | CC[C@H](C)[C@H](NC(C)=O)C(=O)N[C@H](C(=O)N[C@@H](CC(C)C)C(=O)N[C@@H](CO)C(=O)N[C@@H](CC(C)C)C(=O)N[C@@H](CC(=O)O)C(=O)N[C@@H](C(=O)N1CCC[C@H]1C(=O)N[C@H](C(=O)N[C@@H](CCCCN)C(=O)N[C@@H](CC(C)C)C(=O)N[C@@H](CCCCNC(=O)CC[C@H](NC(=O)CCCCCCCCCCCCC(=O)O)C(=O)O)C(=O)N[C@@H](CCCCN)C(=O)N[C@H](C(=O)N[C@@H](CC(C)C)C(=O)N[C@@H](CC(C)C)C(=O)N[C@@H](CCC(=O)O)C(=O)N[C@@H](CCC(N)=O)C(=O)N[C@@H](CCC(=O)O)C(=O)N[C@@H](CCCCN)C(=O)N[C@@H](CCC(N)=O)C(=O)N[C@@H](CCCCN)C(=O)N[C@@H](C)C(=O)N[C@@H](CCC(N)=O)C(=O)N[C@@H](CCCNC(=N)N)C(=O)N[C@@H](CCC(=O)O)C(=O)N[C@@H](CCC(N)=O)C(=O)N[C@@H](C)C(=O)N[C@@H](CCC(=O)O)C(=O)N[C@H](C(=O)N[C@@H](CC(N)=O)C(=O)NC1(C(=O)N[C@@H](CCC(N)=O)C(=O)N[C@H](C(=O)N[C@@H](CC(C)C)C(=O)N[C@@H](C)C(=O)N[C@@H](CCC(N)=O)C(=O)N[C@H](C(N)=O)C(C)C)[C@@H](C)CC)CCNCC1)[C@@H](C)O)[C@@H](C)CC)[C@@H](C)CC)C(C)C)C(C)C [compound 169] (Ac-IVLSLD[dV]PIKLK([γGlu-C14 diacid])KILLEQEKQKAQREQAETN[Api]QILAQV-NH2)
2 | 1.28 | 5 | > 250 | CC[C@H](C)[C@H](NC(C)=O)C(=O)N[C@H](C(=O)N[C@@H](CC(C)C)C(=O)N[C@@H](CO)C(=O)N[C@@H](CC(C)C)C(=O)N[C@@H](CC(=O)O)C(=O)N[C@@H](C(=O)N1CCC[C@H]1C(=O)N[C@H](C(=O)N[C@@H](CCCCN)C(=O)N[C@@H](CC(C)C)C(=O)N[C@@H](CCCCNC(=O)CC[C@H](NC(=O)CCCCCCCCCCCCC(=O)O)C(=O)O)C(=O)N[C@@H](CCCCN)C(=O)N[C@H](C(=O)N[C@@H](CC(C)C)C(=O)N[C@@H](CC(C)C)C(=O)N[C@@H](CCC(=O)O)C(=O)N[C@@H](CCC(N)=O)C(=O)N[C@@H](CCC(=O)O)C(=O)N[C@@H](CCCCN)C(=O)N[C@@H](CCC(N)=O)C(=O)N[C@@H](CCCCN)C(=O)NC(C)(C)C(=O)N[C@@H](CCC(N)=O)C(=O)N[C@@H](CCCNC(=N)N)C(=O)N[C@@H](CCC(=O)O)C(=O)N[C@@H](CCC(N)=O)C(=O)N[C@@H](C)C(=O)N[C@@H](CCC(=O)O)C(=O)N[C@H](C(=O)N[C@@H](CC(N)=O)C(=O)NC1(C(=O)N[C@@H](CCC(N)=O)C(=O)N[C@H](C(=O)N[C@@H](CC(C)C)C(=O)N[C@@H](C)C(=O)N[C@@H](CCC(N)=O)C(=O)N[C@H](C(N)=O)C(C)C)[C@@H](C)CC)CCNCC1)[C@@H](C)O)[C@@H](C)CC)[C@@H](C)CC)C(C)C)C(C)C [compound 170] (Ac-IVLSLD[dV]PIKLK([γGlu-C14 diacid])KILLEQEKQK[Aib]QREQAETN[Api]QILAQV-NH2)
3 | 5.79 | 0 | > 250 | CC[C@H](C)[C@H](NC(C)=O)C(=O)N[C@H](C(=O)N[C@@H](CC(C)C)C(=O)N[C@@H](CO)C(=O)N[C@@H](CC(C)C)C(=O)N[C@@H](CC(=O)O)C(=O)N[C@@H](C(=O)N1CCC[C@H]1C(=O)N[C@H](C(=O)N[C@@H](CCCCN)C(=O)N[C@@H](CC(C)C)C(=O)N[C@@H](CCCCNC(=O)COCCOCCNC(=O)COCCOCCNC(=O)CC[C@H](NC(=O)CCCCCCCCCCCCC(=O)O)C(=O)O)C(=O)N[C@@H](CCCCN)C(=O)N[C@H](C(=O)N[C@@H](CC(C)C)C(=O)N[C@@H](CC(C)C)C(=O)N[C@@H](CCC(=O)O)C(=O)N[C@@H](CCC(N)=O)C(=O)N[C@@H](CCC(=O)O)C(=O)N[C@@H](CCCCN)C(=O)N[C@@H](CCC(N)=O)C(=O)N[C@@H](CCCCN)C(=O)N[C@@H](CCCCN)C(=O)N[C@@H](CCC(N)=O)C(=O)N[C@@H](CCCNC(=N)N)C(=O)N[C@@H](CCC(=O)O)C(=O)N[C@@H](CCC(N)=O)C(=O)N[C@@H](C)C(=O)N[C@@H](CCC(=O)O)C(=O)N[C@H](C(=O)N[C@@H](CC(N)=O)C(=O)NC(C)(C)C(=O)N[C@@H](CCC(N)=O)C(=O)N[C@H](C(=O)N[C@@H](CC(C)C)C(=O)N[C@@H](C)C(=O)N[C@@H](CCC(N)=O)C(=O)N[C@H](C(N)=O)C(C)C)[C@@H](C)CC)[C@@H](C)O)[C@@H](C)CC)[C@@H](C)CC)C(C)C)C(C)C [compound 171] (Ac-IVLSLD[dV]PIKLK([AEEA-AEEA-γGlu-C14 diacid])KILLEQEKQKKQREQAETN[Aib]QILAQV-NH2)
4 | 16.1 | −6 | > 250 | CC[C@H](C)[C@H](NC(C)=O)C(=O)N[C@H](C(=O)N[C@@H](CC(C)C)C(=O)N[C@@H](CO)C(=O)N[C@@H](CC(C)C)C(=O)N[C@@H](CC(=O)O)C(=O)N[C@@H](C(=O)N1CCC[C@H]1C(=O)N[C@H](C(=O)N[C@@H](CCCCN)C(=O)N[C@@H](CC(C)C)C(=O)N[C@@H](CCCCNC(=O)COCCOCCNC(=O)COCCOCCNC(=O)CC[C@H](NC(=O)CCCCCCCCCCCCC(=O)O)C(=O)O)C(=O)N[C@@H](CCCCN)C(=O)N[C@H](C(=O)N[C@@H](CC(C)C)C(=O)N[C@@H](CC(C)C)C(=O)N[C@@H](CCC(=O)O)C(=O)N[C@@H](CCC(N)=O)C(=O)N[C@@H](CCC(=O)O)C(=O)N[C@@H](CCCCN)C(=O)N[C@@H](CCC(N)=O)C(=O)N[C@@H](CCCCN)C(=O)N[C@@H](CCCCN)C(=O)N[C@@H](CCC(N)=O)C(=O)N[C@@H](CCCNC(=N)N)C(=O)N[C@@H](CCC(=O)O)C(=O)N[C@@H](CCC(N)=O)C(=O)N[C@@H](C)C(=O)N[C@@H](CCC(=O)O)C(=O)N[C@H](C(=O)N[C@@H](CC(N)=O)C(=O)NC1(C(=O)N[C@@H](CCC(N)=O)C(=O)N[C@H](C(=O)N[C@@H](CC(C)C)C(=O)N[C@@H](C)C(=O)N[C@@H](CCC(N)=O)C(=O)N[C@H](C(N)=O)C(C)C)[C@@H](C)CC)CCNCC1)[C@@H](C)O)[C@@H](C)CC)[C@@H](C)CC)C(C)C)C(C)C [compound 172] (Ac-IVLSLD[dV]PIKLK([AEEA-AEEA-γGlu-C14 diacid])KILLEQEKQKKQREQAETN[Api]QILAQV-NH2)
5 | 28.1 | −1 | > 250 | CC[C@H](C)[C@H](NC(C)=O)C(=O)N[C@H](C(=O)N[C@@H](CC(C)C)C(=O)N[C@@H](CO)C(=O)N[C@@H](CC(C)C)C(=O)N[C@@H](CC(=O)O)C(=O)N[C@@H](C(=O)N1CCC[C@H]1C(=O)N[C@H](C(=O)N[C@@H](CCCCN)C(=O)N[C@@H](CC(C)C)C(=O)N[C@@H](CCCCNC(=O)COCCOCCNC(=O)COCCOCCNC(=O)CC[C@H](NC(=O)CCCCCCCCCCCCC(=O)O)C(=O)O)C(=O)N[C@@H](CCCCN)C(=O)N[C@H](C(=O)N[C@@H](CC(C)C)C(=O)N[C@@H](CC(C)C)C(=O)N[C@@H](CCC(=O)O)C(=O)N[C@@H](CCC(N)=O)C(=O)N[C@@H](CCC(=O)O)C(=O)N[C@@H](CCCCN)C(=O)N[C@@H](CCC(N)=O)C(=O)N[C@@H](CCCCN)C(=O)NC(C)(C)C(=O)N[C@@H](CCC(N)=O)C(=O)N[C@@H](CCCNC(=N)N)C(=O)N[C@@H](CCC(=O)O)C(=O)N[C@@H](CCC(N)=O)C(=O)N[C@@H](C)C(=O)N[C@@H](CCC(=O)O)C(=O)N[C@H](C(=O)N[C@@H](CC(N)=O)C(=O)NC1(C(=O)N[C@@H](CCC(N)=O)C(=O)N[C@H](C(=O)N[C@@H](CC(C)C)C(=O)N[C@@H](C)C(=O)N[C@@H](CCC(N)=O)C(=O)N[C@H](C(N)=O)C(C)C)[C@@H](C)CC)CCNCC1)[C@@H](C)O)[C@@H](C)CC)[C@@H](C)CC)C(C)C)C(C)C [compound 173] (Ac-IVLSLD[dV]PIKLK([AEEA-AEEA-γGlu-C14 diacid])KILLEQEKQK[Aib]QREQAETN[Api]QILAQV-NH2)
